Key:
[1] = target: T1, human recombinant histamine H2 receptor (Homo sapiens, UniProt P25021); experiment: Histamine H2 radioligand binding ([125I]Aminopotentidine); settings: compound at 1 μM; read-out: Histamine Binding (1 μM) H2, percent inhibition of specific binding
T1 construct: expressed in transfected cells; host or cells: CHO-K1 cells
Summary of the method: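 Membranes from CHO-K1 cells expressing recombinant human H2 receptor, in 50 mM phosphate buffer pH 7.4, incubated with 0.1 nM [125I]aminopotentidine for 120 min at 25 °C; nonspecific binding defined with 3 μM tiotidine.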

[2] = target: T2, human recombinant adrenergic α1D receptor (Homo sapiens, UniProt P25100); experiment: Adrenergic alpha1D radioligand binding ([3H]Prozosin); settings: compound at 1 μM; read-out: Adrenergic (1 μM) α1D, percent inhibition of specific binding
T2 construct: expressed in transfected cells; host or cells: HEK-293 cells
T2 sequence (P25100 1-572): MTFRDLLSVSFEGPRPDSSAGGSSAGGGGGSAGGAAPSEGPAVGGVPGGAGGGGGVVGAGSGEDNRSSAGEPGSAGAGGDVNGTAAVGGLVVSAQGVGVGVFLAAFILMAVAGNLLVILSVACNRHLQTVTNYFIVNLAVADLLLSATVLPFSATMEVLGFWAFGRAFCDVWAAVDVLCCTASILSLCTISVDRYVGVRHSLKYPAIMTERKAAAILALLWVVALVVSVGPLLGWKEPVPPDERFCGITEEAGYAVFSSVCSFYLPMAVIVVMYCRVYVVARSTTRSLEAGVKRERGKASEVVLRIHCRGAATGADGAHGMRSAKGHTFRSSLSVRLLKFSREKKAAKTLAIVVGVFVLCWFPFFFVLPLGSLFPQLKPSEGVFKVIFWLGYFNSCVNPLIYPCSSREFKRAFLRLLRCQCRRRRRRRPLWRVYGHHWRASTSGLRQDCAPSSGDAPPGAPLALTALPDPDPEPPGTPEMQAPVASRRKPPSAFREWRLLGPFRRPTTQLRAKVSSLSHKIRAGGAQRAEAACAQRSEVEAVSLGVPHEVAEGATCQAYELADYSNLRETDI
Summary of the method: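 Membranes from HEK-293 cells expressing the human receptor in 50 mM Tris-HCl pH 7.4 were incubated 60 min at 25 °C with 0.6 nM [3H]prazosin. Nonspecific binding was defined with 10 μM phentolamine, and bound ligand measured by filtration.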

[3] = target: T3, human recombinant adrenergic α2A receptor (Homo sapiens, UniProt P08913); experiment: Adrenergic alpha2A radioligand binding ([3H]MK-912); settings: compound at 1 μM; read-out: Adrenergic (1 μM) α2A, percent inhibition of specific binding
T3 construct: expressed in transfected cells; host or cells: insect Sf9 cells
T3 sequence (P08913 1-465): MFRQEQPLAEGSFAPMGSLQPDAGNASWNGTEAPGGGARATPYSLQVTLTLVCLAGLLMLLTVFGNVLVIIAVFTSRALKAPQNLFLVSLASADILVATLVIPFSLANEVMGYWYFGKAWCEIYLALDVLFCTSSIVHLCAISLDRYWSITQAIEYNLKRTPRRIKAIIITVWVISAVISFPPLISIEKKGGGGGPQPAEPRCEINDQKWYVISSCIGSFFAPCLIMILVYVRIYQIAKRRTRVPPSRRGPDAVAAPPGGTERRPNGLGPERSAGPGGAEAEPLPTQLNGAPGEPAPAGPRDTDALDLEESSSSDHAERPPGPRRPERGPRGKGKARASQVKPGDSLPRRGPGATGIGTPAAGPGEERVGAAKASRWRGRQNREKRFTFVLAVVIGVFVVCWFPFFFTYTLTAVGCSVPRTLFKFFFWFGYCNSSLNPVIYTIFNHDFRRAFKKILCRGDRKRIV
Summary of the method: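 Membranes of Sf9 cells expressing human recombinant α2A receptor were incubated with compound and 1 nM [3H]MK-912 for 60 min at 25 °C in 50 mM Tris-HCl pH 7.4, 12.5 mM MgCl2, 2 mM EDTA. Nonspecific binding: 10 μM WB-4101.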

[4] = target: T4, human recombinant dopamine D2L receptor (Homo sapiens, UniProt P14416); experiment: Dopamine D2L radioligand binding ([3H]Spiperone); settings: compound at 1 μM; read-out: Dopamine (1 μM) D2L, percent inhibition of specific binding
T4 construct: expressed in transfected cells; host or cells: CHO cells
Summary of the method: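 Binding measured by filtration and counting, reported as % inhibition of specific [3H]spiperone binding (0.16 nM tracer; 10 μM haloperidol for nonspecific). Compounds tested at ≤1 μM in 1% DMSO for 120 min at 25° C against CHO-expressed human D2L in pH 7.4 Tris-HCl buffer.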

T4 sequence (P14416 whole entry): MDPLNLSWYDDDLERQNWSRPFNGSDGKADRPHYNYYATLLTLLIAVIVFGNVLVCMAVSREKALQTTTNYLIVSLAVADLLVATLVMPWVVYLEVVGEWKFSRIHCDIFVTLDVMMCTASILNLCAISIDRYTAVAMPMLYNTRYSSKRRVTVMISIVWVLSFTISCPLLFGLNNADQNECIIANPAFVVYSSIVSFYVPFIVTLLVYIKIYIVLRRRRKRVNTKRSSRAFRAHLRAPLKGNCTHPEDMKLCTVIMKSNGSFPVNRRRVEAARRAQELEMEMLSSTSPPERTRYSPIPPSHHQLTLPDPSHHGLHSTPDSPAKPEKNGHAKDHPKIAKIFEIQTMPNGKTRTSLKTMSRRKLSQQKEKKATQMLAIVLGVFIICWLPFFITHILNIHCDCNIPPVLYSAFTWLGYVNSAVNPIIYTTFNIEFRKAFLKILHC
T1 sequence (P25021 whole entry): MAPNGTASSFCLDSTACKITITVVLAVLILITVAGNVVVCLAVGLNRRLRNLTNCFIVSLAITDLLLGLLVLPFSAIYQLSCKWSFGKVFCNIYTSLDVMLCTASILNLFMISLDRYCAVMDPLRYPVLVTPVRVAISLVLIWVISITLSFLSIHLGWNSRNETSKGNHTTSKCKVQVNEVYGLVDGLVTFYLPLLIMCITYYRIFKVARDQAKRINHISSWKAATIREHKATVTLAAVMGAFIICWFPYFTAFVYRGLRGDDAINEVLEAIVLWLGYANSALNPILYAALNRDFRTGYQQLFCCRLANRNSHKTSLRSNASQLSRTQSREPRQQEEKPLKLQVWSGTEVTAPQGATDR

`Cc1ccc2c(c1)c1c(n2/C=C/c2ccc(Cl)cc2)CCN(C)CC1` [Compound No. 235, (E)-6-(4-chlorostyryl)-3,9-dimethyl-1,2,3,4,5,6-hexahydroazepino[4,5-b]indole] gave an inhibition at 1 µM [1] of 94%, an inhibition at 1 µM [2] of 95% and an inhibition at 1 µM [3] of 95%. The inhibition at 1 µM [4] was 42%.

`Cc1ccc2c(c1)c1c(n2CC(C)(O)c2ccc(F)cc2)CCN(C)CC1` (stereo not drawn) [Compound No. 14, 2-(4-fluorophenyl)-1-(2,3,4,5-tetrahydro-3,9-dimethylazepino[4,5-b]indol-6(1H)-yl)propan-2-ol] showed an inhibition at 1 µM [1] of 83%, an inhibition at 1 µM [2] of 75% and an inhibition at 1 µM [3] of 90%. It also gave an inhibition at 1 µM [4] of 38%.

Work on `Cc1ccc2c(c1)c1c(n2CC(O)c2ccncc2)CCN(C)CC1` (stereo not drawn) [Compound No. 43, 2-(2,3,4,5-tetrahydro-3,9-dimethylazepino[4,5-b]indol-6(1H)-yl)-1-(pyridin-4-yl)ethanol] yielded an inhibition at 1 µM [1] of 30%, an inhibition at 1 µM [2] of 70% and an inhibition at 1 µM [3] of 78%. For the same compound, the inhibition at 1 µM [4] was 4%.

For `CN1CCc2c(n(CCc3ccccc3F)c3ccccc23)CC1` [Compound No. 237, 6-(2-fluorophenethyl)-3-methyl-1,2,3,4,5,6-hexahydroazepino[4,5-b]indole], the inhibition at 1 µM [1] was 81%, the inhibition at 1 µM [2] was 70% and the inhibition at 1 µM [3] was 98%. For the same compound, the inhibition at 1 µM [4] was 50%.

In the case of `Cc1ccc(C(O)Cn2c3c(c4cc(C)ccc42)CCN(C)CC3)cc1` (stereo not drawn) [Compound No. 27, 2-(2,3,4,5-tetrahydro-3,9-dimethylazepino[4,5-b]indol-6(1H)-yl)-1-p-tolylethanol], the inhibition at 1 µM [1] is reported as 78%, the inhibition at 1 µM [2] is reported as 95% and the inhibition at 1 µM [3] is reported as 98%. For the same compound, the inhibition at 1 µM [4] was 58%.

Work on `CN1CCc2c(n(CC(O)c3ccncc3)c3ccc(Cl)cc23)CC1` (stereo not drawn) [Compound No. 42, 2-(9-chloro-2,3,4,5-tetrahydro-3-methylazepino[4,5-b]indol-6(1H)-yl)-1-(pyridin-4-yl)ethanol] yielded an inhibition at 1 µM [1] of 45%, an inhibition at 1 µM [2] of 73% and an inhibition at 1 µM [3] of 87%. For the same compound, the inhibition at 1 µM [4] was 8%.

For `Cc1ccc2c(c1)c1c(n2CCc2ccccc2F)CCN(C)CC1` [Compound No. 63, 6-(2-fluorophenethyl)-1,2,3,4,5,6-hexahydro-3,9-dimethylazepino[4,5-b]indole], the inhibition at 1 µM [1] was 83%, the inhibition at 1 µM [2] was 77% and the inhibition at 1 µM [3] was 96%. For the same compound, the inhibition at 1 µM [4] was 61%.

In the case of `CN1CCc2c(n(CC(O)c3ccccc3)c3ccc(Cl)cc23)CC1` (stereo not drawn) [Compound No. 24, 2-(9-chloro-2,3,4,5-tetrahydro-3-methylazepino[4,5-b]indol-6(1H)-yl)-1-phenylethanol], the inhibition at 1 µM [1] is reported as 58%, the inhibition at 1 µM [2] is reported as 85% and the inhibition at 1 µM [3] is reported as 100%. It also gave an inhibition at 1 µM [4] of 41%.

Compound `Cc1ccc2c(c1)c1c(n2CCc2cncc(Cl)c2)CCN(C)CC1` [Compound No. 4, 6-(2-(5-chloropyridin-3-yl)ethyl)-1,2,3,4,5,6-hexahydro-3,9-dimethylazepino[4,5-b]indole] has an inhibition at 1 µM [1] of 59%, an inhibition at 1 µM [2] of 76% and an inhibition at 1 µM [3] of 85%. The inhibition at 1 µM [4] was 2%.

`Cc1ccc2c(c1)c1c(n2CC(=O)Nc2ccc(F)cc2)CCN(C)CC1` [Compound No. 44, N-(4-fluorophenyl)-2-(2,3,4,5-tetrahydro-3,9-dimethylazepino[4,5-b]indol-6(1H)-yl)acetamide] gave an inhibition at 1 µM [1] of 1%, an inhibition at 1 µM [2] of 10% and an inhibition at 1 µM [3] of 1%. It also gave an inhibition at 1 µM [4] of -8%.

Compound `CC(C)NC(=O)Cn1c2c(c3cc(Cl)ccc31)CCN(C)CC2` [Compound No. 31, 2-(9-chloro-2,3,4,5-tetrahydro-3-methylazepino[4,5-b]indol-6(1H)-yl)-N-isopropylacetamide] has an inhibition at 1 µM [1] of -10%, an inhibition at 1 µM [2] of 6% and an inhibition at 1 µM [3] of 31%. The inhibition at 1 µM [4] was 4%.

In the case of `CN1CCc2c(n(CC(=O)N3CCCCC3)c3ccc(Cl)cc23)CC1` [Compound No. 57, 2-(9-chloro-2,3,4,5-tetrahydro-3-methylazepino[4,5-b]indol-6(1H)-yl)-1-(piperidin-1-yl)ethanone], the inhibition at 1 µM [1] is reported as 1%, the inhibition at 1 µM [2] is reported as -7% and the inhibition at 1 µM [3] is reported as -1%. The inhibition at 1 µM [4] was 10%.
